Measured values: PubChem BioAssay AID248 (DTP/NCI, 2004)
Toxic doses and inconclusive results are not listed. No stated cut-off is given here; in the data, active means T/C of 150% or more; inactive means T/C below 125%.

System: L1210 leukemia ip in BDF1 mice, survival T/C
Assay: NCI In Vivo Anticancer Drug Screen. Data for tumor model L1210 Leukemia (intraperitoneal) in B6D2F1 (BDF1) mice
Conditions: endpoint: mean survival time, higher = longer survival
How it was run: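 Survival endpoint. Drug-treated group vs vehicle group, expressed as T divided by C. Tumor passaged by transplantation.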

[1] = dose: 75.0 mg/kg/injection, schedule: Q01DX001 (ip), vehicle: saline
[2] = dose: 100.0 mg/kg/injection, schedule: Q04DX003 (ip), vehicle: Klucel (hydroxypropylcellulose) (HPC)
[3] = dose: 100.0 mg/kg/injection, schedule: Q01DX001 (ip), vehicle: Klucel (hydroxypropylcellulose) (HPC)
[4] = dose: 200.0 mg/kg/injection, schedule: Q01DX001 (ip), vehicle: Klucel (hydroxypropylcellulose) (HPC)
[5] = dose: 100.0 mg/kg/injection, schedule: Q04DX003 (ip), vehicle: saline
[6] = dose: 200.0 mg/kg/injection, schedule: Q04DX003 (ip), vehicle: saline
[7] = dose: 100.0 mg/kg/injection, schedule: Q04DX002 (ip), vehicle: Klucel (hydroxypropylcellulose) (HPC)
[8] = dose: 200.0 mg/kg/injection, schedule: Q04DX002 (ip), vehicle: Klucel (hydroxypropylcellulose) (HPC)
[9] = dose: 100.0 mg/kg/injection, schedule: Q01DX001 (ip), vehicle: carboxymethylcellulose (CMC)
[10] = dose: 200.0 mg/kg/injection, schedule: Q01DX001 (ip), vehicle: carboxymethylcellulose (CMC)
[11] = dose: 400.0 mg/kg/injection, schedule: Q01DX001 (ip), vehicle: carboxymethylcellulose (CMC)
[12] = dose: 200.0 mg/kg/injection, schedule: Q04DX003 (ip), vehicle: saline with Tween-80

Measured: T/C

c1ccc(C(=C2CCC2)c2c3ccccc3cc3ccccc23)cc1
inactive: dose: 40.0 mg/kg/injection, schedule: Q01DX009 (ip), vehicle: Klucel (hydroxypropylcellulose) (HPC) 99 % of control | dose: 75.0 mg/kg/injection, schedule: Q01DX001 (ip), vehicle: Klucel (hydroxypropylcellulose) (HPC) 93 % of control | dose: 75.0 mg/kg/injection, schedule: Q01DX009 (ip), vehicle: Klucel (hydroxypropylcellulose) (HPC) 107 % of control | dose: 150.0 mg/kg/injection, schedule: Q01DX001 (ip), vehicle: Klucel (hydroxypropylcellulose) (HPC) 90 % of control | dose: 150.0 mg/kg/injection, schedule: Q01DX009 (ip), vehicle: Klucel (hydroxypropylcellulose) (HPC) 99 % of control

C/C=C(\C)C1(CC)C(=O)NC(=O)N(C)C1=O (centres undefined)
inactive: [1] 93 % of control | dose: 150.0 mg/kg/injection, schedule: Q01DX001 (ip), vehicle: saline 97 % of control

O=C(O)CNC(=O)C(CSCc1ccccc1)NC(=O)OCc1ccccc1 (centres undefined)
inactive: [2] 97 % of control | dose: 400.0 mg/kg/injection, schedule: Q04DX003 (ip), vehicle: Klucel (hydroxypropylcellulose) (HPC) 86 % of control

CC1(C)C(C(=O)O)CC1C(=O)C(=O)O (centres undefined)
inactive: dose: 75.0 mg/kg/injection, schedule: Q01DX001 (ip), vehicle: carboxymethylcellulose (CMC) 96 % of control | dose: 150.0 mg/kg/injection, schedule: Q01DX001 (ip), vehicle: carboxymethylcellulose (CMC) 96 % of control | dose: 300.0 mg/kg/injection, schedule: Q01DX001 (ip), vehicle: carboxymethylcellulose (CMC) 94 % of control

Nc1ncnc(N)c1NC(=O)c1ccc(Cl)c(Cl)c1
inactive: dose: 75.0 mg/kg/injection, schedule: Q01DX001 (ip), vehicle: saline with Tween-80 102 % of control | dose: 150.0 mg/kg/injection, schedule: Q01DX001 (ip), vehicle: saline with Tween-80 98 % of control | dose: 300.0 mg/kg/injection, schedule: Q01DX001 (ip), vehicle: saline with Tween-80 96 % of control

CC(=[N-])CC(C)=O.CC(=[N-])CC(C)=O.[Cu+2]
inactive: dose: 6.25 mg/kg/injection, schedule: Q04DX003 (ip), vehicle: saline with Tween-80 88 % of control | dose: 12.5 mg/kg/injection, schedule: Q04DX003 (ip), vehicle: saline with Tween-80 89 % of control

CCOC(=O)C(COS(C)(=O)=O)NS(=O)(=O)c1ccc(C)cc1 (centres undefined)
inactive: [3] 98 % of control | [4] 104 % of control | dose: 400.0 mg/kg/injection, schedule: Q01DX001 (ip), vehicle: Klucel (hydroxypropylcellulose) (HPC) 95 % of control

C[N+](C)(C)CC1CCCCC1
inactive: [1] 103 % of control

O=C1CSC2=NCCN12
inactive: dose: 100.0 mg/kg/injection, schedule: Q01DX001 (ip), vehicle: saline 99 % of control | [5] 93 % of control | dose: 200.0 mg/kg/injection, schedule: Q01DX001 (ip), vehicle: saline 99 % of control | [6] 98 % of control | dose: 400.0 mg/kg/injection, schedule: Q01DX001 (ip), vehicle: saline 92 % of control

COc1ccc(F)cc1CC#N
inactive: [7] 98 % of control | [8] 98 % of control

CN1C(=O)N(Br)C(C)(C)C1=O
inactive: dose: 50.0 mg/kg/injection, schedule: Q01DX009 (ip), vehicle: Klucel (hydroxypropylcellulose) (HPC) 95 % of control | dose: 50.0 mg/kg/injection, schedule: Q04DX003 (ip), vehicle: Klucel (hydroxypropylcellulose) (HPC) 106 % of control | [3] 92 % of control | dose: 100.0 mg/kg/injection, schedule: Q01DX009 (ip), vehicle: Klucel (hydroxypropylcellulose) (HPC) 98 % of control | [2] 100 % of control | [4] 102 % of control | dose: 200.0 mg/kg/injection, schedule: Q04DX003 (ip), vehicle: Klucel (hydroxypropylcellulose) (HPC) 97 % of control

O=C(Nc1c(Oc2ccc(Cl)cc2)ccc(Cl)c1S(=O)(=O)O)Nc1c(Oc2ccc(Cl)cc2)ccc(Cl)c1S(=O)(=O)O
inactive: dose: 100.0 mg/kg/injection, schedule: Q01DX001 (ip), vehicle: acetone 95 % of control | [5] 95 % of control | [6] 96 % of control | dose: 400.0 mg/kg/injection, schedule: Q01DX001 (ip), vehicle: acetone 92 % of control

COC(=O)c1ccc(=O)n(C/C=C(\C)CCC(=O)O)c1
inactive: dose: 100.0 mg/kg/injection, schedule: Q01DX009 (ip), vehicle: water 96 % of control | dose: 100.0 mg/kg/injection, schedule: Q04DX003 (ip), vehicle: other 93 % of control | dose: 200.0 mg/kg/injection, schedule: Q01DX009 (ip), vehicle: water 102 % of control | dose: 200.0 mg/kg/injection, schedule: Q04DX003 (ip), vehicle: other 93 % of control | dose: 400.0 mg/kg/injection, schedule: Q01DX009 (ip), vehicle: water 98 % of control | dose: 400.0 mg/kg/injection, schedule: Q04DX003 (ip), vehicle: other 91 % of control

[O-][N+](=Nc1ccc(Br)cc1)c1ccc(Br)cc1
inactive: [7] 95 % of control | [8] 100 % of control | dose: 400.0 mg/kg/injection, schedule: Q04DX002 (ip), vehicle: Klucel (hydroxypropylcellulose) (HPC) 89 % of control

CC(=O)CCC(CCC(C)=O)(CCC(C)=O)[N+](=O)[O-]
inactive: [9] 104 % of control | [10] 104 % of control | [11] 98 % of control

O=C1C(=O)N(CNC(c2ccccc2)c2ccccc2)c2ccccc21
inactive: [12] 87 % of control | dose: 400.0 mg/kg/injection, schedule: Q01DX009 (ip), vehicle: saline with Tween-80 96 % of control

CCC(=O)OC/C=C/c1ccccc1
inactive: dose: 100.0 mg/kg/injection, schedule: Q01DX009 (ip), vehicle: saline 95 % of control | dose: 100.0 mg/kg/injection, schedule: Q04DX003 (ip), vehicle: alcohol 100 % of control | dose: 200.0 mg/kg/injection, schedule: Q01DX009 (ip), vehicle: saline 102 % of control | dose: 200.0 mg/kg/injection, schedule: Q04DX003 (ip), vehicle: alcohol 98 % of control | dose: 400.0 mg/kg/injection, schedule: Q01DX009 (ip), vehicle: saline 95 % of control | dose: 400.0 mg/kg/injection, schedule: Q04DX003 (ip), vehicle: alcohol 94 % of control

CCOC(=O)c1ccc2c(c1)nc1c3cccc4cccc(c(=O)n21)c43
inactive: dose: 100.0 mg/kg/injection, schedule: Q04DX003 (ip), vehicle: saline with Tween-80 86 % of control | [12] 92 % of control | dose: 400.0 mg/kg/injection, schedule: Q04DX003 (ip), vehicle: saline with Tween-80 98 % of control

C[N+](C)(C)CCCC1C2CCC(C2)C1C[N+](C)(C)C (centres undefined)
inactive: dose: 12.0 mg/kg/injection, schedule: Q01DX009 (ip), vehicle: saline 103 % of control | dose: 12.5 mg/kg/injection, schedule: Q04DX003 (ip), vehicle: saline 106 % of control | dose: 25.0 mg/kg/injection, schedule: Q01DX009 (ip), vehicle: saline 104 % of control | dose: 25.0 mg/kg/injection, schedule: Q04DX003 (ip), vehicle: saline 98 % of control

O=c1[nH]c2cc(Cl)cc(Cl)c2c2ccc(Cl)cc12
inactive: [9] 100 % of control | [10] 96 % of control | [11] 89 % of control
